What was measured:
Set-up in all cases: 5 μl of radiolabelled SAP in TN; from tissue
SAP [1] = target: T1, SAP (Homo sapiens, UniProt P02743); assay: Inhibition of binding of 125I radiolabelled SAP to Neisseria meningitidis immobilized in microtitre plates; conditions: read-out: Percent inhibition of binding of radiolabelled SAP to immobilized Neisseria meningitidis
SAP [2] = target: T1, SAP; assay: Inhibition of binding of 125I radiolabelled SAP to native long chromatin immobilized in microtitre plates; conditions: read-out: Percent inhibition of binding of radiolabelled SAP to immobilized native long chromatin
SAP [3] = target: T1, SAP; assay: Inhibition of binding of 125I radiolabelled SAP to influenza virus immobilized in microtitre plates; conditions: read-out: Percent inhibition of binding of radiolabelled SAP to immobilized influenza virus
SAP [4] = target: T1, SAP; assay: Treatment of patients with osteoarthritis: plasma SAP concentration and joint symptoms; format: in vivo; conditions: patient
Source text: 1) The patient, a person retired General Practitioner living in New Zealand, has a long history of bone and joint injuries, starting as a child on a farm and continuing as a teenager and then adult playing rugby and skiing. They have suffered from pain and swelling of previously damaged joints following manual work and especially in cold weather. The proximal interphalangeal joints of the left middle and right fourth fingers, the right elbow and the mid-thoracic intervertebral joints have been most affected. Symptoms and signs have progressively worsened over the past 22 years, so that their capacity for physical work had become very restricted and during winter they have required frequent or continuous treatment with non-steroidal anti-inflammatory drugs. These are all typical manifestations of osteoarthritis. In 2000 the discovery of impaired renal function led eventually to a second, and completely separate diagnosis of hereditary systemic amyloidosis caused by a mutation in the gene for fibrinogen A α-chain.
They started experimental treatment for their amyloidosis on 9 Oct. 2001 with (R)-1-[6-[(R)-2-Carboxy-pyrrolidin-1-yl]-6-oxo-hexanoyl]pyrrolidine-2-carboxylic acid, 10 mg b.d. by subcutaneous injection. […] This improvement was sustained and increased so that by April 2002, the autumn in New Zealand, it was impressively beyond doubt. Throughout that winter, for the first time in many years, […] no longer required treatment with non-steroidal anti-inflammatory drugs, despite increased physical activity. […] Over the past few months they have been doing regular hard physical work on the land, fencing and landscaping, including lifting and carrying significant weights, without suffering any of the pain and swelling that previously severely affected them even without the stress of unusual physical activity.
Their shoulders were painful, particularly when reaching up or behind their head, making drying their hair and some household tasks painful and difficult. […] They also experienced pain in their right wrist when performing some tasks, particularly opening jars, a manoeuvre that they found difficult. These symptoms are all compatible with osteoarthritis.
CD has hereditary systemic amyloidosis caused by a mutation in the gene for apolipoprotein AI, diagnosed in October 2001 during investigation of chronic renal impairment. […] They started experimental treatment for their amyloidosis on 22 Oct. 2001 with (R)-1-[6-[(R)-2-Carboxy-pyrrolidin-1-yl]-6-oxo-hexanoyl]pyrrolidine-2-carboxylic acid, 15 mg b.d. by subcutaneous injection. […] Treatment with (R)-1-[6-[(R)-2-Carboxy-pyrrolidin-1-yl]-6-oxo-hexanoyl]pyrrolidine-2-carboxylic acid finished in October 2002 and their remarkable remission has continued to the present (June 2003).

T1 sequence (P02743 20-223): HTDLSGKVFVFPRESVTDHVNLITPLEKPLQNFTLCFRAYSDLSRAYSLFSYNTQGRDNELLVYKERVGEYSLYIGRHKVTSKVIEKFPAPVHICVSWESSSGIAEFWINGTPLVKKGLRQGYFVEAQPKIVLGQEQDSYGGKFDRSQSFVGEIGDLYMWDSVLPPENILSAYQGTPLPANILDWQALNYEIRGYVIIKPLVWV

## O=C(O)[C@H]1CCCN1C(=O)CCCCC(=O)N1CCC[C@@H]1C(=O)O [Ro-63-8695, (R)-1-[6-[(R)-2-Carboxy-pyrrolidin-1-yl]-6-oxo-hexanoyl]pyrrolidine-2-carboxylic acid]
SAP [1]; compound 200 nM
  inhibition at 0.2 µM: 5%
SAP [1]; compound 2 μM
  inhibition at 2 µM: 61%
SAP [1]; compound 20 μM
  inhibition at 20 µM: 74%
SAP [1]; compound 200 μM
  inhibition at 200 µM: 79%
SAP [1]; compound 2 mM
  inhibition at 2000 µM: 100%
SAP [2]; compound 200 nM
  inhibition at 0.2 µM: 1%
SAP [2]; compound 2 μM
  inhibition at 2 µM: 29%
SAP [2]; compound 20 μM
  inhibition at 20 µM: 69%
SAP [2]; compound 200 μM
  inhibition at 200 µM: 87%
SAP [2]; compound 2 mM
  inhibition at 2000 µM: 93%
SAP [3]; compound 200 nM
  inhibition at 0.2 µM: 36%
SAP [3]; compound 2 μM
  inhibition at 2 µM: 81%
SAP [3]; compound 20 μM
  inhibition at 20 µM: 90%
SAP [3]; compound 200 μM
  inhibition at 200 µM: 96%
SAP [3]; compound 2 mM
  inhibition at 2000 µM: 98%
SAP [4]; 10 mg b.d. subcutaneous injection, after three months
  plasma SAP concentration reduced by: over 95%
SAP [4]; 10 mg b.d. subcutaneous injection, treatment Oct. 2001 to June 2003
  symptoms of osteoarthritis: remained in remission
SAP [4]; 15 mg b.d. subcutaneous injection, after two months
  plasma SAP concentration reduced by: over 95%
SAP [4]; 15 mg b.d. subcutaneous injection, by January 2002 (start 22 Oct. 2001)
  joint pain and function: free of pain and had normal function of their joints
